According to US7815900B1, “Use of C3-C5 monosaccharides to protect keratinous fibers” (L'Oréal S.A., priority 2000, dated 2010):

How the values were obtained:
[1] = DSC doublet peak area (α-structure) of hair after heat cycles; settings: normal blonde hair
Experimental: (§1) Normal blonde hair was bleached with Clairol Basic White Bleach (40 volume H2O2) for 20 min at standard room temperature and humidity. The bleached swatches were rinsed with tap water, and soaked in an excess of deionized water for 2 hours. The swatches were air-dried and equilibrated for 48 hours prior to further treatment. Some of the bleached swatches were subsequently “permed” using a Reforming Lotion (10% TGA, pH 8.8, 20 minutes) and then neutralized with 2% H2O2, pH 3 (5 minutes). The bleached/permed swatches were rinsed with tap water, and soaked in an excess of deionized water for 2 hours. The swatches were air-dried and equilibrated for 48 hours prior to further treatment. The swatches that were heat treated were treated with 0.06M solutions of hexoses and pentoses for 10 min at 45° C. and then were heated for 12 cycles. The swatches were rinsed after the heat application.
(§2) In the DSC tests, finely cut hair (4-5 mg) was crimped in an aluminum pan that was punctured prior to each run. The samples were heated from 25° C. to 300° C., at a scanning rate of 20° C./min, with 5 runs per treatment. The results were averaged.
(§3) Normal blonde hair was bleached with Clairol Basic White Bleach, 40 volume H2O2, for 20 min at room temperature. One batch of normal and bleached hair swatches underwent five heat cycles at 130° C., where one treatment cycle involved the following steps (1-4):
(§4) 1. The swatches were treated with 0.06 M solutions of monosaccharides in deionized water (about 1 wt %) for 10 min at 45° C.
(§5) 2. The treated swatches were blow-dried for 1 min.
(§6) 3. The heat was applied for 1 min in the form of a flat hair iron Windmere “Solid Gold” (130° C.).
(§7) 4. The swatches were rinsed and blot-dried with a paper-towel.
(§8) The treatment solutions included four pentoses (D-xylose, D-arabinose, D-lyxose, and D-ribose, 1% each) and one hexose (1.2% D-glucose). Deionized water was used as a control treatment. After the heat experiment, the hair was rinsed in water, air-dried, and equilibrated for 24 hours in the humidity chamber at 25° C. and 50% RH prior to further testing. These swatches are referred to as treated at 130° C.
(§9) A second batch of normal and bleached hair swatches were treated in a similar way and blow-dried, without application of the hot iron. The treatment was also repeated 5 times, the swatches from the second batch are referred to as treated at 45° C.
Normal blonde hair was subjected to 12 heat cycles, as described in Example 2, using the following treatment solutions: 0.1% D-Xylose (pentose), 0.1% D-Erythrose (tetrose), and 0.1% D-Glyceraldehyde (triose). Each of the C3 to C5 monosaccharides was effective in protecting or reducing the damage to the α-structure of the hair, as compared to water treatment (Table 15).
Normal blonde hair was subjected to 12 heat cycles, as described in Example 2, using 0.1 wt % of the pentose amine derivative, D-Lyxosylimine in deionized water.

[2] = as above; settings: for Doublet Peak Area: 0.06 M solutions
Experimental: as §1, §2, §3, §4, §5, §6, §7, §8, §9
Normal blonde hair was divided in two batches. The hair from the first batch was bleached with Clairol Basic White Bleach, 40 volume H2O2, for 20 min at room temperature and humidity. The hair from the second batch was first bleached as above, and then permed: Reforming lotion-10% Thioglycolic acid, pH 8.8, 20 min; neutralizer-2% hydrogen peroxide, 5 min. The oxidatively damaged hair was equilibrated for 24 hours prior to further testing.
(§10) Both the bleached and the bleached/permed hair were subjected to heat treatment, as in Example 2. The heat treatment experiment involved 12 heat cycles including application of sugar or control solution before each heat application, and rinsing after the heat application. Deionized water was used as a control treatment.
(§11) After the heat experiment, the hair was rinsed in water, air-dried, and equilibrated for 24 h in the humidity chamber at 25° C. and 50% RH prior to further testing. The effect of the hexoses vs. pentoses on the dry tensile strength (INSTRON) and the alpha-structure (doublet peak area, DSC) was tested on the bleached hair (Table 13). The effect of a hexose (D-glucose) vs. a pentose (D-Xylose) on wet tensile strength (DIA-STRON) was tested both on the bleached and the bleached/permed hair (Table 14). Application of 0.06M solutions of pentoses protected the bleached and the bleached/permed hair against thermal damage (α-structure; wet and dry tensile strength).

[3] = Dry tensile strength (Instron) after heat cycles; settings: for protection of dry tensile strength, in words: hair treated 5 cycles at 45° C. and at 130° C.
Experimental: as §1
(§12) Tensile strength was determined using both the Instron (50 dry fibers per tests) and the Dia-Stron (100 wet fibers per test), with the stretching rate of 100 mm/min. The following parameters were determined: Young's Modulus (N/m^2), Work to stretch 25% (J/m^2); Extension to Break (degree of elongation) (%); Work to Break (J/m^2).
as §3, §4, §5, §6, §7, §8, §9, §10, §11

[4] = Dry tensile strength (Instron) after heat cycles; settings: normal blonde hair, 5 heat cycles at 130° C., 0.06 M solutions, n = 50 fibers
Experimental: as §12, §3, §4, §5, §6, §7, §8, §9

[5] = DSC doublet peak area (α-structure) of hair after heat cycles; settings: bleached/permed hair, 12 heat cycles, 0.06 M
Experimental: Normal blonde hair was bleached with Clairol Basic White Bleach (40 volume H2O2) for 20 min at standard room temperature and humidity. The bleached swatches were rinsed with tap water, and soaked in an excess of deionized water for 2 hours. The swatches were air-dried and equilibrated for 48 hours prior to further treatment. Some of the bleached swatches were subsequently “permed” using a Reforming Lotion (10% TGA, pH 8.8, 20 minutes) and then neutralized with 2% H2O2, pH 3 (5 minutes). The bleached/permed swatches were rinsed with tap water, and soaked in an excess of deionized water for 2 hours. The swatches were air-dried and equilibrated for 48 hours prior to further treatment. The swatches that were heat treated were treated with 0.06M solutions of hexoses and pentoses for 10 min at 45° C. and then were heated for 12 cycles. The swatches were rinsed after the heat application. In the DSC tests, finely cut hair (4-5 mg) was crimped in an aluminum pan that was punctured prior to each run. The samples were heated from 25° C. to 300° C., at a scanning rate of 20° C./min, with 5 runs per treatment. The results were averaged. Normal blonde hair was divided in two batches. The hair from the first batch was bleached with Clairol Basic White Bleach, 40 volume H2O2, for 20 min at room temperature and humidity. The hair from the second batch was first bleached as above, and then permed: Reforming lotion-10% Thioglycolic acid, pH 8.8, 20 min; neutralizer-2% hydrogen peroxide, 5 min. The oxidatively damaged hair was equilibrated for 24 hours prior to further testing. Both the bleached and the bleached/permed hair were subjected to heat treatment, as in Example 2. The heat treatment experiment involved 12 heat cycles including application of sugar or control solution before each heat application, and rinsing after the heat application. Deionized water was used as a control treatment. After the heat experiment, the hair was rinsed in water, air-dried, and equilibrated for 24 h in the humidity chamber at 25° C. and 50% RH prior to further testing. The effect of the hexoses vs. pentoses on the dry tensile strength (INSTRON) and the alpha-structure (doublet peak area, DSC) was tested on the bleached hair (Table 13). The effect of a hexose (D-glucose) vs. a pentose (D-Xylose) on wet tensile strength (DIA-STRON) was tested both on the bleached and the bleached/permed hair (Table 14). Application of 0.06M solutions of pentoses protected the bleached and the bleached/permed hair against thermal damage (α-structure; wet and dry tensile strength).

[6] = bleached hair after 12 heat cycles
[7] = bleached hair after 12 heat cycles, 0.06 M solutions, n = 100 fibers
[8] = dry bleached hair, 12 heat cycles, 0.06 M, INSTRON, n = 50 fibers
[9] = bleached hair, 5 cycles at 45° C.
[10] = bleached hair, 5 heat cycles at 130° C.
[11] = dry, bleached hair, 5 cycles at 45° C., 0.06 M solutions, n = 50 fibers
[12] = 5 heat cycles at 130° C., 0.06 M solutions
[13] = bleached hair, 5 heat cycles at 130° C., 0.06 M solutions, n = 50 fibers
[14] = 0.1 wt % solutions, 12 heat cycles at 130° C.

| Compound | Doublet Peak Area [2, 6] | Work 25% (Dry) [3, 7] | Extension-Break [3, 8] | Work 25% [3, 8] | Work-Break [3, 8] | Young's Modulus [3, 8] | also measured |
| --- | --- | --- | --- | --- | --- | --- | --- |
| D-Lyxosylimine | – | – | – | – | – | – | Doublet Peak Area ([1]; 0.1 wt % Lyxosylimine, 12 heat cycles at 130° C.): 11.49 +/− 3.56 J/g hair; protection of the α-structure as compared to water treatment, in words ([1]; 0.1 wt % solutions, 12 heat cycles): protected the α-structure hair |
| C[C@H](O)[C@@H](O)[C@@H](O)[C@H](O)C=O [L-Fucose] | 5.26 +/− 1.59 J/g hair | 838.2 +/− 134.5 J/m^2 | 57.01 +/− 6.18% | 838.2 +/− 134.5 J/m^2 | 2,346 +/− 543 J/m^2 | 4,331 +/− 860 MN/m^2 | – |
| O=C[C@@H](O)[C@H](O)[C@H](O)CO [D-Arabinose] | – | – | – | – | – | – | Doublet Peak Area [2, 9]: 7.78 +/− 1.07 J/g hair; Doublet Peak Area [2, 10]: 8.22 +/− 0.90 J/g hair; Work 25% [3, 11]: 1,147 +/− 191 J/m^2; protection of dry tensile strength, in words [3]: improved protection both at 45 °C and at 130 °C; Doublet Peak Area [1, 12]: 11.33 +/− 2.30 J/g hair; Work 25% (Dry) [4]: 1,060 +/− 180 J/m^2 |
| O=C[C@H](O)[C@H](O)[C@H](O)CO [D-Ribose] | – | – | – | – | – | – | Doublet Peak Area [2, 9]: 7.80 +/− 1.87 J/g hair; Doublet Peak Area [2, 10]: 9.27 +/− 2.81 J/g hair; Work 25% (Dry) [3, 13]: 1,064 +/− 171.1 J/m^2; Work 25% [3, 11]: 1,237 +/− 204 J/m^2; protection of dry tensile strength, in words [3]: improved protection both at 45 °C and at 130 °C |
| O=CC[C@H](O)[C@H](O)CO [2-Deoxy-D-ribose] | 9.63 +/− 2.87 J/g hair | 1,032 +/− 163 J/m^2 | 55.35 +/− 7.52% | 1,032 +/− 163 J/m^2 | 2,872 +/− 709 J/m^2 | 5,111 +/− 871 MN/m^2 | protection effect (normalized α-structure peak area), in words ([2]; bleached and bleached/permed hair, 12 heat cycles): protection effect was found; Normalized area ([2]; bleached hair, 12 heat cycles, 0.06 M): 9.63 +/− 2.87 J/g hair; Normalized area [5]: 6.43 +/− 1.87 J/g hair |
| O=C(CO)[C@@H](O)[C@H](O)[C@H](O)CO [D-Fructose] | 6.51 +/− 1.71 J/g hair | 885.0 +/− 161.0 J/m^2 | 59.89 +/− 8.11% | 885 +/− 161 J/m^2 | 2,644 +/− 644 J/m^2 | 4,492 +/− 852 MN/m^2 | – |
| O=C[C@@H](O)[C@@H](O)[C@H](O)[C@H](O)CO [D-Mannose] | 5.47 +/− 1.27 J/g hair | 914.9 +/− 122.0 J/m^2 | 57.33 +/− 5.98% | 914.9 +/− 122 J/m^2 | 2,595 +/− 433 J/m^2 | 4,746 +/− 688 MN/m^2 | – |
| O=C[C@H](O)[C@H](O)CO [D-Erythrose] | – | – | – | – | – | – | Doublet Peak Area [1, 14]: 13.20 +/− 7.15 J/g hair |
| O=C[C@H](O)CO [D-Glyceraldehyde] | – | – | – | – | – | – | Doublet Peak Area [1, 14]: 13.47 +/− 3.03 J/g hair |
| O=C[C@H](O)[C@@H](O)[C@@H](O)[C@H](O)CO [D-Galactose] | 5.39 +/− 2.29 J/g hair | 945.8 +/− 168.9 J/m^2 | 58.82 +/− 6.21% | 945.8 +/− 168.9 J/m^2 | 2,696 +/− 533 J/m^2 | 4,724 +/− 913 MN/m^2 | – |
| O=C[C@@H](O)[C@@H](O)[C@H](O)CO [D-Lyxose] | – | – | – | – | – | – | Doublet Peak Area [2, 9]: 8.26 +/− 3.02 J/g hair; Doublet Peak Area [2, 10]: 6.23 +/− 0.59 J/g hair; Work 25% (Dry) [3, 13]: 819.9 +/− 162.7 J/m^2; Work 25% [3, 11]: 1,157 +/− 228 J/m^2; protection of dry tensile strength, in words [3]: better improved protection at 45 °C; Doublet Peak Area [1, 12]: 8.35 +/− 0.81 J/g hair; Work 25% (Dry) [4]: 883.4 +/− 174.2 J/m^2 |
